In patent US20110201622A1, “Solid Forms Comprising A Cyclopropyl Amide Derivative” (priority 2010, published 2011):

Experiments:
[1] = Dynamic vapor sorption (DVS) analysis; type: physicochemical; conditions: about ambient temperature, about 0% RH to about 90% RH
Protocol: Solid material obtained according to Example 5 was analyzed by DVS techniques. Isothermic DVS analysis was performed at about ambient temperature by increasing a sample of Form I of Compound I from about 0% RH to about 90% RH.
DVS analysis is performed on samples prepared according to standard methods using standard equipment, e.g., a DVS instrument commercially available from Surface Measurement Systems, Ltd.™(Alperton, London, UK). Samples maintained at ambient temperature are cycled between about 0% RH and about 90% RH. Percent changes in mass are recorded, which are indicative of moisture sorption and desorption.

[2] = Thermal gravimetric analysis (TGA); type: physicochemical
Protocol: Solid material obtained according to the Example 5 was analyzed by thermal techniques.

hygroscopicity (DVS analysis) [1]: substantially nonhygroscopic | mass loss (TGA) ([2]; upon heating from about 20° C. to about 100° C.): about 0.25% | further mass loss (TGA) ([2]; upon heating from about 100° C. to about 160° C.): about 0.25%
Structure (SMILES): C[C@@H]1CN(C2CCC2)CCN1C(=O)[C@H]1C[C@@H]1c1ccc(C(N)=O)cc1 [Form I of Compound I, 4-{(1S, 2S)-2-[((R)-4-cyclobutyl-2-methylpiperazin-1-yl)carbonyl]-cyclopropyl}-benzamide]
